The test system of experiment [1] is Pseudomonas syringae pv. syringae. On the procedure: (§1) In-vitro inhibition assays were performed in sterile flat-bottom 96-well plates (Greiner bio-one, Frickenhausen). Antimicrobial peptides were dissolved in 0.01% acetic acid containing 0.2% BSA (500 µg/ml), filter sterilized and stored at -20°C. For inhibition assays dilutions of peptides ranging from 5 to 200 µg/ml were prepared and 10 µl (antibacterial assay) or 20 µl (antifungal assay) of each concentration was loaded per well.
(§2) Bacteria colonies from overnight agar plate cultures were resuspended into 5ml LB-medium or HPG-medium (OD600nm=0.08-0.1) and diluted into LB-medium/HPG-medium (1:100). 90 µl of this suspension containing about 10^5-10^6 CFU/ml of tested bacteria were added to each well resulting in final peptide concentrations of 0, 0.5, 1, 2, 5, 10, and 20 µg/ml.
(§3) The lowest peptide concentration leading to complete inhibition of bacterial growth or spore germination/mycelial growth (minimal inhibition concentration, MIC) was determined for each organism-peptide combination. For each peptide concentration two identical inhibition assays were performed. […] Table 1: Minimal inhibition concentration (MIC) for complete inhibition of bacterial growth or spore germination/mycelial growth.

In experiment [2] the test system is Xanthomonas vesicatoria. On the procedure:
as §1, §2, §3

In experiment [3] the test system is Pseudomonas syringae pv. tomato. As to the method: as §1, §2, §3
Experiment [4] concerns Pectobacterium carotovorum sub. carotovorum. On the procedure:
as §1, §2, §3

In experiment [5] the test system is Pseudomonas corrugata. On the procedure:
as §1, §2, §3

The test system of experiment [6] is Alternaria alternata. In kind it is cell-based. As to conditions: complete inhibition of spore germination/mycelial growth, OD590nm. On the procedure:
(§4) In-vitro inhibition assays were performed in sterile flat-bottom 96-well plates (Greiner bio-one, Frickenhausen). […] Spores of fungi were collected by water washes of sporulating cultures grown on 2% malt extract agar and spore concentration was determined by microscopy. The concentration of the spores was adjusted to 1.5-2 x 10^3 spores/ml in 2% malt extract medium and 80 µl of fungal spores were added per well. […] After overnight incubation at room temperature the plate were put on a rotary shaker (300 rpm) for further two days to ensure consistantly growth. Antifungal effects of the peptides were determined by a microplate reader (Alternaria, Fusarium) at OD590nm or by visual screening of the plates (Botrytis, Cladosporium). The lowest peptide concentration leading to complete inhibition of bacterial growth or spore germination/mycelial growth (minimal inhibition concentration, MIC) was determined for each organism-peptide combination. For each peptide concentration two identical inhibition assays were performed. Table 1: Minimal inhibition concentration (MIC) for complete inhibition of bacterial growth or spore germination/mycelial growth.

For experiment [7], the system named is Cladosporium herbarum. In kind it is cell-based. As to conditions: complete inhibition of spore germination/mycelial growth, visual screening. On the procedure: as §4
Experiment [8] relates to Botrytis cinerea. In kind it is cell-based. As to conditions: complete inhibition of spore germination/mycelial growth, visual screening. On the procedure: as §4
The subject of experiment [9] is Clavibacter michiganensis sub. michiganensis. The following applies: complete inhibition of bacterial growth, overnight at 25 °C. On the procedure:
as §1, §2, §3

Setting [10] is: complete inhibition of bacterial growth, Pseudomonas syringae pv. syringae, overnight at 25 °C.
Where [11] appears, read: complete inhibition of bacterial growth, Xanthomonas vesicatoria, overnight at 25 °C.
Setting [12] is: complete inhibition of bacterial growth, Pseudomonas syringae pv. tomato, overnight at 25 °C.
Setting [13] is: complete inhibition of bacterial growth, Pectobacterium carotovorum sub. carotovorum, overnight at 25 °C.
[14] abbreviates: complete inhibition of bacterial growth, Pseudomonas corrugata, overnight at 25 °C.

Read-outs that look alike come from different tables or passages of the source. Non-standard residues stand in square brackets, D forms with d. Residues, ends and D or L forms follow the SMILES beside them. No end group written: not given here.

Turning to `CC[C@@H](C)[C@@H](NC(=O)[C@H](Cc1ccccc1)NC(=O)[C@H](CCCNC(=N)N)NC(=O)[C@H](CCCCN)NC(=O)[C@H](CC(C)C)NC(=O)[C@H](Cc1ccccc1)NC(=O)[C@H](CCCCN)NC(=O)[C@H](NC(=O)[C@H](CC(C)C)NC(=O)[C@@H](N)CC(C)C)[C@H](C)CC)C(=O)N[C@@H](CCCCN)C(=O)N[C@@H](Cc1c[nH]cn1)C(N)=O` [SP7-D, LL/KFLKRF/KH] (H-LL[dI]KFLKRF[dI]KH-NH2; N-terminus assumed), the “Minimal inhibition concentration (MIC)” value was 2,5 µg/ml in [1]; 10 µg/mL in experiment [2]; 2,5 µg/ml in experiment [3]; 40 µg/mL in experiment [4]; 5 µg/mL in experiment [5].

With ALAHFLKKAIKK-NH2 [SP6], the “Minimal inhibition concentration (MIC)” value in [6] was greater than 100 µg/mL; in [7], 100 µg/mL; in [8], greater than 100 µg/mL; in experiment [9], greater than 40 µg/mL; in experiment [1] (setting [10]) it was 5 µg/mL; in experiment [2] (setting [11]), 40 µg/mL. Besides, the “Minimal inhibition concentration (MIC)” value in experiment [3] (setting [12]) is 10 µg/mL; in experiment [4] (setting [13]), greater than 40 µg/mL; in [5] (setting [14]), 20 µg/mL.

Consider LLIAAFKKLVKK-NH2 [SP5], for which the “Minimal inhibition concentration (MIC)” value in experiment [6] was greater than 100 µg/mL; in experiment [7], 100 µg/mL; in experiment [8], greater than 100 µg/mL; in experiment [9] it was 20 µg/mL; in experiment [1] (setting [10]), 40 µg/mL; in experiment [2] (setting [11]), 40 µg/mL. For the same compound, the “Minimal inhibition concentration (MIC)” value in experiment [3] (setting [12]), in [4] (setting [13]) and in [5] (setting [14]) was greater than 40 µg/mL in each case.

In the case of LLIKFLKRFIKH-NH2 [SP7], the “Minimal inhibition concentration (MIC)” value in experiment [6] is greater than 100 µg/mL; in experiment [7], 20 µg/mL; in [8], greater than 100 µg/mL; in experiment [9] it was 5 µg/mL; in [1] (setting [10]), 10 µg/mL; in [2] (setting [11]) it was 5 µg/mL. Further, the “Minimal inhibition concentration (MIC)” value in experiment [3] (setting [12]) is 5 µg/mL; in experiment [4] (setting [13]), greater than 40 µg/mL; in experiment [5] (setting [14]), 10 µg/mL.

On to LLIRAAKKFIKK-NH2 [SP8], for which the “Minimal inhibition concentration (MIC)” value in experiment [6] was greater than 100 µg/mL; in experiment [7], 40 µg/mL; in [8], greater than 100 µg/mL; in experiment [9], greater than 40 µg/mL; in [1] (setting [10]), greater than 40 µg/mL; in experiment [2] (setting [11]), greater than 40 µg/mL. Besides, the “Minimal inhibition concentration (MIC)” value in [3] (setting [12]), in experiment [4] (setting [13]) and in experiment [5] (setting [14]) was greater than 40 µg/mL in each case.

The record behind these values is EP2168591A1, “Antimicrobial peptides” (Helmholtz Zentrum München Deutsches Forschungszentrum für …, priority 2008, dated 2010).
